Test results from US8895504B2, “Amylin derivatives” (priority 2008, dated 2014).
*1 amine or outer side, *2 acyl side, *3 side chain or, on linkers, in order; H or OH if unused. Where a SMILES comes first, the peptide text is derived from it. Bridges are numbered along the chain shown (N, C = ends). The star is where a group is joined. C20 diacid = O=C(O)CCCCCCCCCCCCCCCCCCC(=O)*; γGlu = O=C(O)[C@H](CCC(=O)[*:2])N[*:1]

Key:
[1] = Assay (VI) PK - determination of T½ in rat; format: in vivo; settings: sc, terminal plasma half-life, subcutaneous, approx 20 nmol/kg, male Sprague Dawley rats
Method: Assay (VI) PK—Determination OF T½ in Rat
T½ is the terminal half-life=ln 2/λz of a compound in plasma. λz is the first order rate constant associated with the terminal (log-linear) portion of the plasma concentration-time curve and is estimated by linear regression of time vs. log concentration.
T½ values of the amylin analogues of the invention is determined by pharmacokinetic studies in Sprague Dawley male rats, from Taconic Europe and the principles of laboratory animal care are followed.
An acclimatization period of approximately 7 days was allowed before the animals entered the study. At start of the acclimatization period the rats were in the weight range of 300-400 g. The rats had permanent catheters inserted in a. carotis which were used for blood sampling.
The studies were conducted in an animal room which was illuminated to give a cycle of approx 12 hours light and 12 hours darkness. The animals were housed individually due to the catheters and had food and water ad lib. The animals were weighed on the days of dosing.
In the present studies the test substances were administered subcutaneously in approx 20 nmol/kg dose. The animals received a single subcutaneous injection to the neck using a 25 G needle with syringe. Each test substance was given to typically three but in some cases two or four animals.
A full plasma concentration-time profile, employing 8-10 sampling points, was obtained from each animal. In example blood samples were collected according to the following schedule:
After subcutaneous administration:
Predose (0), 0.5, 1, 1.5, 2, 4, 6, 12, 24, 48 and 72 hours after injection. At each sampling time, 0.08 to 0.10 ml of blood was drawn from each animal. The blood samples were taken via the catheter.
The blood samples were collected into EDTA test tubes. Blood samples were kept on ice for max 20 min. before centrifugation. Plasma was separated using centrifugation (i.e. at 4° C., 10 min., 1500 G) and was immediately transferred to Micronic tubes or PCR plates. Approximately 40 μl plasma was transferred and was stored at −20° C. until assayed. The plasma samples were assayed for the content of amylin using an ELISA assay.
The plasma concentration-time profiles were analysed by a non-compartmental pharmacokinetic analysis (NCA) using WinNonlin Professional 5.0 (Pharsight Inc., Mountain View, Calif., USA). NCA was performed using the individual plasma concentration-time profiles from each animal. T½ is the terminal half-life=ln 2/λz and was determined from λz, the first order rate constant associated with the terminal (log-linear) portion of the curve, estimated by linear regression of time vs. log concentration.
ELISA Plasma Assay for Amylin Quantification
The human amylin ELISA is a monoclonal antibody-based sandwich immunoassay for determining amylin levels in human plasma. The capture antibody recognizes human amylin, amylin acid (deamidated amylin), a 1-20 fragment of amylin, but not reduced amylin. The detection antibody binds to reduced or unreduced human amylin but not amylin acid and is complexed with streptavidin-alkaline phosphatase. The substrate, 4-methylumbelliferyl phosphate, is applied to the completed sandwich and the fluorescent signal, monitored at 355 nm/460 nm, is proportional to the amount of amylin present in the sample.

[2] = Assay (V) PK - determination of T½ in mini-pig; format: in vivo; settings: minipig, sc; terminal plasma half-life, subcutaneous, approx 2 nmol/kg, male Göttingen mini-pigs
Outline: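 Male Göttingen mini-pigs (5–12 months, 7–35 kg) got a single s.c. neck injection of approx 2 nmol/kg; plasma sampled via central venous catheter predose to 240 h (some to 288 h). Amylin measured by sandwich ELISA; T½ = ln 2/λz from non-compartmental analysis of individual profiles.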

half-life [1]: 14 h
half-life [2]: 60 h
Structure (SMILES): CC[C@H](C)[C@H](NC(=O)[C@@H]1CCCN1C(=O)CNC(=O)[C@H](Cc1ccccc1)NC(=O)[C@H](CC(N)=O)NC(=O)[C@H](CC(N)=O)NC(=O)[C@H](CO)NC(=O)[C@H](CO)NC(=O)[C@H](Cc1c[nH]cn1)NC(=O)[C@H](Cc1c[nH]cn1)NC(=O)[C@H](CC(C)C)NC(=O)[C@H](Cc1ccccc1)NC(=O)[C@H](CC(N)=O)NC(=O)[C@H](C)NC(=O)[C@H](CC(C)C)NC(=O)[C@H](CCCNC(=N)N)NC(=O)[C@H](CCC(N)=O)NC(=O)[C@@H](NC(=O)[C@H](C)NC(=O)[C@@H]1CSSC[C@H](NC(=O)[C@H](Cc2c[nH]cn2)NC(=O)[C@H](Cc2c[nH]cn2)NC(=O)[C@H](Cc2c[nH]cn2)NC(=O)CC[C@H](NC(=O)CCCCCCCCCCCCCCCCCCC(=O)O)C(=O)O)C(=O)N[C@@H](CC(N)=O)C(=O)N[C@@H]([C@@H](C)O)C(=O)N[C@@H](C)C(=O)N[C@@H]([C@@H](C)O)C(=O)N1)[C@@H](C)O)C(=O)N[C@@H](CC(C)C)C(=O)N1CCC[C@H]1C(=O)N1CCC[C@H]1C(=O)N[C@H](C(=O)N[C@@H](CC(N)=O)C(=O)N[C@H](C(=O)NCC(=O)N[C@@H](CO)C(=O)N[C@@H](CC(N)=O)C(=O)N[C@H](C(=O)N[C@@H](Cc1ccc(O)cc1)C(N)=O)[C@@H](C)O)C(C)C)[C@@H](C)O [Example 39, N-alpha-[(S)-4-Carboxy-4-(19-carboxynonadecanoylamino)butyryl]-His-His-[His1,His17]-pramlintide] ({C20 diacid-γGlu}-HHHCNTATCATQRLANFLHHSSNNFGPILPPTNVGSNTY-NH2; disulfide 4-9)
